Measured values reported in ChEMBL document CHEMBL2021832, “On the search for potential anti-Trypanosoma cruzi drugs: synthesis and biological evaluation of 2-hydroxy-3-methylamino and 1,2,3-triazolic naphthoquinoidal compounds obtained by click chemistry reactions” (Eur J Med Chem, 2012).
The source made the active and inactive calls. No cut-off for these calls is given here.

Assays:
[1] = system: Trypanosoma cruzi; experiment: Trypanocidal activity against bloodstream form of Trypanosoma cruzi Y isolated from albino mouse blood after 24 hrs by neubauer chamber analysis; format: functional, organism-based
[2] = system: Trypanosoma cruzi; experiment: Ratio of benznidazole IC50 to compound IC50 for bloodstream form of Trypanosoma cruzi Y; format: functional
[3] = Cytotoxicity against mouse embryo HMC after 24 hrs by Alamar blue assay; conditions: mouse embryo HMC cells, read-out: LC50
[4] = Selectivity index, ratio of LC50 for mouse embryo HMC to IC50 for bloodstream form of Trypanosoma cruzi Y
[5] = system: Biomphalaria glabrata; experiment: Molluscicidal activity against Biomphalaria glabrata; format: functional, organism-based

## O=C1C=C(n2cc(CO)nn2)C(=O)c2ccccc21
[1]
  IC50: 17.7 µM
[2]
  Ratio IC50: 5.8
[3]
  CC50 at 24 h: 107 µM
[4]
  Ratio LC50/IC50: 6.1

## O=C1C(Cl)=C(n2cc(-c3ccccc3)nn2)C(=O)c2ccccc21
[1]
  IC50: 42 µM

## CCOC(=O)c1cn(C2=CC(=O)c3ccccc3C2=O)nn1
[1]
  IC50: 67.6 µM

## O=C1C=C(Cl)C(=O)c2ccccc21
[1]
  IC50: 12.3 µM
[3]
  CC50 at 24 h: 41.3 µM
[4]
  Ratio LC50/IC50: 3.6

## CC(C)(CO)NCC1=C(O)C(=O)c2ccccc2C1=O
[1]
  IC50: 370 µM
[5]
  Activity: Active

## O=C1C=C(n2cc(-c3ccccc3)nn2)C(=O)c2ccccc21
[1]
  IC50: 10.9 µM
[2]
  Ratio IC50: 9.5
[3]
  CC50 at 24 h: 206 µM
[4]
  Ratio LC50/IC50: 18.9

## CC1(C)CC2=C(O1)c1ccccc1C(=O)C2=O [NOR-BETA-LAPACHONE]
[1]
  IC50: > 4800 µM

## O=C1C(O)=C(CN2CC3CCC2CC3)C(=O)c2ccccc21
[1]
  IC50: 397 µM
[5]
  Activity: Active

## [N-]=[N+]=NC1=C(Cl)C(=O)c2ccccc2C1=O
[1]
  IC50: 51.8 µM
[2]
  Ratio IC50: 2

## CC1(C)OC2=C(C(=O)C(=O)c3ccccc32)C1n1cc(-c2ccc([N+](=O)[O-])cc2)nn1 (stereo not given)
[1]
  IC50: 21.8 µM
[2]
  Ratio IC50: 2.5

## O=C1C=C(n2cc(-c3ccc([N+](=O)[O-])cc3)nn2)C(=O)c2ccccc21
[1]
  IC50: 2010 µM

## CC1(C)OC2=C(C(=O)C(=O)c3ccccc32)C1n1cc(-c2ccc(F)cc2)nn1 (stereo not given)
[1]
  IC50: 20.8 µM
[2]
  Ratio IC50: 2.5

## CC(C)(O)c1cn(C2=CC(=O)c3ccccc3C2=O)nn1
[1]
  IC50: 80.2 µM

## COc1ccc(-c2cn(C3=CC(=O)c4ccccc4C3=O)nn2)cc1
[1]
  IC50: 45.8 µM

## O=C1C=C(O)C(=O)c2ccccc21 [LAWSONE]
[1]
  IC50: > 2500 µM

## CCCN(CCC)CC1=C(O)C(=O)c2ccccc2C1=O
[1]
  IC50: 206 µM
[5]
  Activity: Active

## CC(C)=CCC1=C(OS(C)(=O)=O)C(=O)c2ccccc2C1=O
[1]
  IC50: 25.7 µM
[3]
  CC50 at 24 h: 16.7 µM
[4]
  Ratio LC50/IC50: 0.6

## Cc1ccc(-c2cn(C3C4=C(OC3(C)C)c3ccccc3C(=O)C4=O)nn2)cc1 (stereo not given)
[1]
  IC50: 39.6 µM
[2]
  Ratio IC50: 2.5

## O=C1C(O)=C(CN2CCCC2)C(=O)c2ccccc21
[1]
  IC50: 396 µM
[5]
  Activity: Active

## O=C1C=C(n2cc(-c3ccc(Br)cc3)nn2)C(=O)c2ccccc21
[1]
  IC50: 492 µM

## CC1(C)OC2=C(C(=O)C(=O)c3ccccc32)C1n1cc(-c2ccc(Br)cc2)nn1 (stereo not given)
[1]
  IC50: 102 µM

## CC(C)=CCC1=C(OS(=O)(=O)c2ccc(C)cc2)C(=O)c2ccccc2C1=O
[1]
  IC50: 158 µM

## COc1ccc(-c2cn(C3C4=C(OC3(C)C)c3ccccc3C(=O)C4=O)nn2)cc1 (stereo not given)
[1]
  IC50: 359 µM

## O=C1C(O)=C(CNC2CCCC2)C(=O)c2ccccc21
[1]
  IC50: 361 µM
[5]
  Activity: Active

## [N-]=[N+]=NC1=CC(=O)c2ccccc2C1=O
[1]
  IC50: 41.6 µM

## Cc1ccc(-c2cn(C3=CC(=O)c4ccccc4C3=O)nn2)cc1
[1]
  IC50: 113 µM
